What all share (assay type): biochemical
The target in one assay is T1, NPP6 (Homo sapiens, UniProt Q6UWR7).
T1 sequence (Q6UWR7 23-419): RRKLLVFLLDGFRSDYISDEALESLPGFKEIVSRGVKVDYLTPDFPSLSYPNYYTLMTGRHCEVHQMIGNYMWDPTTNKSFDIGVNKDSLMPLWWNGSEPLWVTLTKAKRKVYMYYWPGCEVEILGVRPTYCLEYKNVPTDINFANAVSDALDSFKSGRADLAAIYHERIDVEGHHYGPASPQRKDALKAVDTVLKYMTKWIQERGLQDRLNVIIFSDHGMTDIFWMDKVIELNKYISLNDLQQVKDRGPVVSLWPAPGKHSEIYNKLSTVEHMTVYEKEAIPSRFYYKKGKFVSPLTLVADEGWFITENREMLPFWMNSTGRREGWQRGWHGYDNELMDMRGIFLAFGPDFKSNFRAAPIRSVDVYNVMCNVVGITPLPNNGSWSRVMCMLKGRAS
The assay can be described thus: NPP-6 inhibition assay (pNPPC substrate). Conditions: 10 μM compound; 8.3 nM enzyme; 10 μM pNPPC; read-out: NPP6 Activity, % control (10 μM). Here is the method: (§1) NPP6 and NPP7 are the only NPP isoforms other than ATX that are known to utilize lysophospholipid phosphodiesters as substrates. Therefore, the specificity of the chemical compounds of the invention regarding ATX was addressed by determining the activity of NPP6 and NPP7 in the presence and absence of these analogs.
(§2) Inhibition of NPP6 and NPP7 was evaluated using recombinant, purified proteins, the synthetic substrate para-nitrophenylphosphocholine (pNPPC) and a Synergy II plate reader (BioTek, Winooski, Vt.). The final concentration of each enzyme was 8.3 nM and pNPPC was 10 μM. All analogs were tested at single 10 μM concentrations. Absorbance of liberated para-nitrophenol at 405 nm was determined up to 1 hour (where responses were linear) and was normalized to vehicle control.

A further assay concerns the target T2, NPP7 (Homo sapiens, UniProt Q6UWV6).
T2 sequence (Q6UWV6 22-458): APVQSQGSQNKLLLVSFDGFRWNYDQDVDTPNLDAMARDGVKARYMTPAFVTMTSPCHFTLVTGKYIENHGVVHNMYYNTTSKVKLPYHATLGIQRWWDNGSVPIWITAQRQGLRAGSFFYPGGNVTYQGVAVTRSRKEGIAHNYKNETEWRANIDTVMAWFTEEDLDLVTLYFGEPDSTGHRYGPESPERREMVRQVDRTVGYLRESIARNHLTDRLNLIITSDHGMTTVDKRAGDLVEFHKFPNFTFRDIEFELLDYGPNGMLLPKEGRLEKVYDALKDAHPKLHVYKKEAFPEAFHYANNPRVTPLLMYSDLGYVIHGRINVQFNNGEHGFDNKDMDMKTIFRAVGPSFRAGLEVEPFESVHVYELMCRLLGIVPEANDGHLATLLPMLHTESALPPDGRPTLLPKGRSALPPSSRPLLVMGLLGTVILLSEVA
The assay can be described thus: NPP-7 inhibition assay (pNPPC substrate). The settings on record: 10 μM compound; 8.3 nM enzyme; 10 μM pNPPC; read-out: NPP7 Activity, % control (10 μM). Here is the method: as §1, §2

Another assay deals with recombinant human ATX (Homo sapiens, UniProt Q13822). The assay can be described thus: Autotaxin inhibition screening assay (FS-3 FRET substrate). Conditions: 10 μM compound; 2 nM recombinant human ATX; 1 μM FS-3; 2 h, 37° C.; read-out: ATX Activity, % control (10 μM). Here is the method:
A 10 μM concentration of the compound is added to 2 nM recombinant human ATX and the FRET (Fluorescence Resonance Energy Transfer) ATX substrate FS-3.
As the first level of screen, 50 μl of recombinant-ATX (2 nM in final concentration) in assay buffer [(Tris 50 mM, NaCl 140 mM, KCl 5 mM, CaCl2 1 mM, MgCl2 1 mM (pH 8.0)] was mixed with 25 μL of FS-3 (Echelon Biosciences, Inc., Salt lake city, Utah), final concentration 1 μM, and 25 μl of test compound was dissolved in assay buffer with 40 μM bovine serum albumin (Sigma, St. Louis, Mo.) in 96-well Costar black-well plate. FS-3 fluorescence at excitation and emission wavelengths of 485 and 538 nm, respectively, were monitored using a FLEXstation II (Molecular Devices, Sunnyvale, Calif.) for 2 h of incubation at 37° C. The differences between time 0 and 120 min were calculated individually and normalized to the vehicle control. The mean±SD of triplicate samples was expressed as percentage of ATX activity. The ATX activity in the presence of the test compounds was compared to vehicle using the […] p<0.05 was considered significant.
The first level of testing was done using 10 μM concentrations of the compounds shown in Tables 1 and 2 added to 2 nM recombinant human ATX and the FRET substrate FS-3. After a 2 h incubation the amount of FS3 hydrolyzed was measured and the residual ATX activity was expressed as a percent of the vehicle-treated sample less the autolysis of FS3 in the absence of ATX.

The target in assay [1] is recombinant, purified human ATX (Homo sapiens, UniProt Q13822). The assay can be described thus: Mechanism of autotaxin inhibition (IC50, Ki, Ki′; FS-3 hydrolysis). The settings on record: for IC50: 8.3 nM ATX, 1 μM FS-3, 15 μM BSA; for ATX Mechanism of inhibition: FS-3 0.3 μM to 20 μM, inhibitor 0, 0.5× and 2× IC50. As to the method:
The mechanism of inhibition of ATX was determined using recombinant, purified human ATX and FS-3. Final ATX and FS-3 concentrations were 8.3 nM and 1 μM, respectively and the assay buffer with 15 μM fatty acid tree BSA. To calculate IC50, full dose responses were determined for the test compounds. […] Simultaneous non-linear regression, using, WinNonLin® 6.1 (Pharsight, Mountain View, Calif.) was used to assign the mechanism of inhibition. Ki and Ki′ values (the affinity for free enzyme and enzyme substrate complex, respectively) were determined by calculating the lowest averaged percent residuals for each mechanism derived from curve fitting using the Michealis-Menten equations for competitive, uncompetitive, mixed-mode, and non-competitive inhibition.

Where [2] appears, read: affinity for enzyme substrate complex.

`CCCCCCCCCCCCCCOc1ccc(CP(=O)(O)O)cc1` [Compound 10, 4-(Tetradecyloxy)benzylphosphonic acid]: the remaining activity at 10 µM at NPP6 is 102%; at NPP7, 101%.
Take `CCCCCCCCCCCCCCCc1ccc(COP(=O)(O)O)cc1` [Compound 45, 4-pentadecylbenzyl dihydrogen phosphate]: the remaining activity at 10 µM was determined as 85.2% at recombinant human ATX, 101% on NPP6 and 98.8% at NPP7.
For `CCCCCCCCCCCCCCCCS(=O)(=O)Nc1ccc(CP(=O)(O)O)cc1` [Compound 4, 4-(Hexadecane-1-sulfonylamino)benzyl phosphonic acid], in that order: 24.1%, 102% and 93.5%.
As usually defined, the IC50 is the midpoint of a concentration-inhibition curve. A word on the Ki: it is the dissociation constant of the complex between target and ligand, obtained from inhibition or displacement. For `CCCCCCCCCCCCCCCc1ccc(COP(O)(O)=S)cc1` [Compound 47, O-4-pentadecylbenzyl O,O-dihydrogen phosphorothioate], the remaining activity at 10 µM on NPP6 was found to be 98.8%; at NPP7 it was 92.9%. For the same compound, the 50% inhibitory concentration (IC50) in assay [1] stood at 1.54 µM. For the same compound, in assay [1], the “ATX Mechanism of inhibition” value is on record as “Mixed”. The values for the inhibitory constant (Ki) in assay [1] (setting [2]) and in assay [1] (affinity for free enzyme) were 4.43 µM and 4.45 µM, respectively.
Regarding `CCCCCCCCCCCCC/C=C/c1ccc(CP(=O)(O)O)cc1` [Compound 18, (E)-4-(Pentadec-1-enyl)benzylphosphonic acid], the remaining activity at 10 µM on recombinant human ATX is 18.8%; at NPP6, 104%; at NPP7, 97.7%.
As for `CCCCCCCCCCCCCC(=O)Nc1ccc(CP(=O)(O)O)cc1` [Compound S32826, 4-tetradecanoylaminobenzyl phosphonic acid, reference compound], the remaining activity at 10 µM stood at 102% on NPP6 and 101% on NPP7.
For `CCCCCCCCCCCCCCCc1ccc(C(O)P(=O)(O)O)cc1` (stereo not shown) [Compound 37, Hydroxy-4-pentadecylphenylmethylphosphonic acid], the values for the remaining activity at 10 µM at recombinant human ATX, at NPP6 and at NPP7 were 9.2%, 99.6% and 101%, respectively. The IC50 in assay [1] is 0.73 µM. Also, the “ATX Mechanism of inhibition” value in assay [1] is given as “Mixed”. In addition, the Ki in assay [1] (setting [2]) is 0.7 µM; in assay [1] (affinity for free enzyme) it was 0.45 µM.
Take `CCCCCCCCCCCCCCCc1ccc(C(Cl)P(=O)(O)O)cc1` (stereo not shown) [Compound 42, Chloro-4-pentadecylphenylmethyl phosphonic acid]: the remaining activity at 10 µM on recombinant human ATX stood at 118%; at NPP6, 101%; at NPP7 it was 99.9%.
The matching figures for `CCCCCCCCCC/C=C/c1ccc2cc(CP(=O)(O)O)ccc2c1` [Compound 30a, (E)-6-Dodec-1-enyl-naphthalen-2-yl-methylphosphonic acid]: 61.3%, 103% and 100%.
Take `CCCCCCCCCCCCCCCc1ccc(C(Br)P(=O)(O)O)cc1` (stereo not shown) [Compound 43, Bromo-4-pentadecylphenylmethyl phosphonic acid]: the remaining activity at 10 µM at recombinant human ATX came to 60.1%; on NPP6 it was 99.3%; on NPP7, 99.5%. The half-maximal inhibitory concentration (IC50) in assay [1] worked out at 10.1 µM. Also, the “ATX Mechanism of inhibition” value in assay [1] is on record as “Mixed”. Moreover, the inhibition constant Ki in assay [1] (setting [2]) amounted to 2.97 µM; in assay [1] (affinity for free enzyme), 6.1 µM.
In the case of `CCCCCCCCCCCCCCCc1ccc(C(F)P(=O)(O)O)cc1` (stereo not shown) [Compound 41, Fluoro-4-pentadecylphenylmethyl phosphonic acid], the remaining activity at 10 µM was determined as 42.3% at recombinant human ATX, 101% at NPP6 and 103% at NPP7. Besides, the half-maximal inhibitory concentration (IC50) in assay [1] was 17.9 µM. In addition, in assay [1], the “ATX Mechanism of inhibition” value is “Mixed”. Moreover, the Ki in assay [1] (setting [2]) came to 5.54 µM; in assay [1] (affinity for free enzyme), 4.97 µM.
Regarding `CCCCCCCCCCCCCc1ccc2cc(CP(=O)(O)O)ccc2c1` [Compound 34b, 6-Tridecylnaphthalen-2-yl-methylphosphonic acid], the results for the remaining activity at 10 µM at recombinant human ATX, at NPP6 and at NPP7 were 50.8%, 100% and 94.7%, respectively.
The matching figures for `CCCCCCCCCCCCc1ccc2cc(CP(=O)(O)O)ccc2c1` [Compound 34a, 6-Dodecylnaphthalen-2-yl-methylphosphonic acid]: 19.9%, 101% and 98.8%.
